For data set [1], the species on record is Homo sapiens. In words: Selectivity ratio of IC50 for BLK (unknown origin) to IC50 for BTK (unknown origin).
The species entered for data set [2] is Homo sapiens. In words: Selectivity ratio of IC50 for BMX (unknown origin) to IC50 for BTK (unknown origin).
For data set [3], the target named is Tyrosine-protein kinase CSK (Homo sapiens, UniProt P41240). In words: Inhibition of CSK (unknown origin).
For data set [4], the species on record is Homo sapiens. The data set is described as follows: Selectivity ratio of IC50 for CSK (unknown origin) to IC50 for BTK (unknown origin).
The species entered for data set [5] is Homo sapiens. The data set is described as follows: Selectivity ratio of IC50 for ERBB4 (unknown origin) to IC50 for BTK (unknown origin).
Data set [6] addresses Tyrosine-protein kinase Lck (Homo sapiens, UniProt P06239). In words: Inhibition of LCK (unknown origin).
For data set [7], the target named is Protein-tyrosine kinase 6 (Homo sapiens, UniProt Q13882). The data set is described as follows: Inhibition of PTK6 (unknown origin).
For data set [8], the species on record is Homo sapiens. In words: Selectivity ratio of IC50 for SRC (unknown origin) to IC50 for BTK (unknown origin).
In data set [9] the target is T1, Tyrosine-protein kinase Tec (Homo sapiens, UniProt P42680).
T1 sequence (P42680 whole entry): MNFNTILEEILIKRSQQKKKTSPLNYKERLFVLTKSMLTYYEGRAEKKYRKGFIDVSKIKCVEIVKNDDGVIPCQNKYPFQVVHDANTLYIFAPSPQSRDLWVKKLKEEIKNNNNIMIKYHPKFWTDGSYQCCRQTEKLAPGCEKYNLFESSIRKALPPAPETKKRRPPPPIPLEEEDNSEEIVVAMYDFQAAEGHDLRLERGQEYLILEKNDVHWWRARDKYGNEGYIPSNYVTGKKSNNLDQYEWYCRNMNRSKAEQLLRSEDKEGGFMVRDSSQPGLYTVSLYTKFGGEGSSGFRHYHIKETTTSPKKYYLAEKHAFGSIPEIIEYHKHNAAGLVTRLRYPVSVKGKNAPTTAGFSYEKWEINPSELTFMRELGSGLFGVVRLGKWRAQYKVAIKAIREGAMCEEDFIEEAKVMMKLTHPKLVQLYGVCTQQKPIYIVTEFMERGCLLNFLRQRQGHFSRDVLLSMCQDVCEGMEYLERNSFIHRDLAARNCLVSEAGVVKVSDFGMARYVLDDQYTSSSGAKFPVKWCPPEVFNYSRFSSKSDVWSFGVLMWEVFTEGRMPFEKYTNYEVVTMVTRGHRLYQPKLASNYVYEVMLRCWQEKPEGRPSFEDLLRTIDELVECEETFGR
The data set is described as follows: Inhibition of TEC (unknown origin).

The species entered for data set [10] is Homo sapiens. In words: Selectivity ratio of IC50 for TEC (unknown origin) to IC50 for BTK (unknown origin).
Data set [11] is filed under the species Homo sapiens. The data set is described as follows: Selectivity ratio of IC50 for TXK (unknown origin) to IC50 for BTK (unknown origin).
Data set [12] has as its target Tyrosine-protein kinase Yes (Homo sapiens, UniProt P07947). The data set is described as follows: Inhibition of YES1 (unknown origin).
Data set [13] can be described thus: Half life in rat at 10 mg/kg. Type of data set: ADME, organism-based. The note with it: in vivo.
The nature of data set [14]: Oral bioavailability in rat at 10 mg/kg. Type of data set: ADME, organism-based. The note with it: in vivo.
Data set [15] can be described thus: Total clearance in dog plasma at 2 mg/kg. Type of data set: ADME, organism-based, Canis lupus familiaris.
Data set [16] in a line: Half life in dog at 2 mg/kg. Type of data set: ADME, organism-based, Canis lupus familiaris. The note with it: in vivo.

Sequence of Tyrosine-protein kinase CSK (P41240 whole entry): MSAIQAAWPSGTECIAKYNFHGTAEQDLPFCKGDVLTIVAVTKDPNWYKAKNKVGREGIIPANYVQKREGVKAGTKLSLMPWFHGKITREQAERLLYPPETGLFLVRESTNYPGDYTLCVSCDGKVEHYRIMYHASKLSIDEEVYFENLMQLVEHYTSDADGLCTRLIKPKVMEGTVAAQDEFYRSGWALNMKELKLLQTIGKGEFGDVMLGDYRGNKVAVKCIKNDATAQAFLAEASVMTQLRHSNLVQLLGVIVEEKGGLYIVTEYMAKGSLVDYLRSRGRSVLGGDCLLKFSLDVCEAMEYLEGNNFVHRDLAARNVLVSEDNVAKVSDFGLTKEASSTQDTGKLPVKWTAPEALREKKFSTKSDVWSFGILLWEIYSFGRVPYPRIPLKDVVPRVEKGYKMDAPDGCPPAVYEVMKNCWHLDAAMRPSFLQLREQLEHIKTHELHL
Sequence of Protein-tyrosine kinase 6 (Q13882 whole entry): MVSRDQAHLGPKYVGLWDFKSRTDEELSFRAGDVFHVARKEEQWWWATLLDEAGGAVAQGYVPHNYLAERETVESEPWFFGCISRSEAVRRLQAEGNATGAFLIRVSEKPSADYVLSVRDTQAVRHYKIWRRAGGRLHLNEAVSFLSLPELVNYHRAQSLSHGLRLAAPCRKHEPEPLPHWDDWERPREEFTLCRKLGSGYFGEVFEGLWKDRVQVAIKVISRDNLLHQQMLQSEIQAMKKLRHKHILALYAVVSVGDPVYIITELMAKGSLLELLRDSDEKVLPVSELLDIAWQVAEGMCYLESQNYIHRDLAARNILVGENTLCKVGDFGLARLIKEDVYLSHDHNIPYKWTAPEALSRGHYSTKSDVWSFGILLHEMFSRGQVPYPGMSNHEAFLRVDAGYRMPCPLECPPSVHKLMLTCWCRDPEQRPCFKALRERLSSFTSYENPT
Sequence of Tyrosine-protein kinase Lck (P06239 whole entry): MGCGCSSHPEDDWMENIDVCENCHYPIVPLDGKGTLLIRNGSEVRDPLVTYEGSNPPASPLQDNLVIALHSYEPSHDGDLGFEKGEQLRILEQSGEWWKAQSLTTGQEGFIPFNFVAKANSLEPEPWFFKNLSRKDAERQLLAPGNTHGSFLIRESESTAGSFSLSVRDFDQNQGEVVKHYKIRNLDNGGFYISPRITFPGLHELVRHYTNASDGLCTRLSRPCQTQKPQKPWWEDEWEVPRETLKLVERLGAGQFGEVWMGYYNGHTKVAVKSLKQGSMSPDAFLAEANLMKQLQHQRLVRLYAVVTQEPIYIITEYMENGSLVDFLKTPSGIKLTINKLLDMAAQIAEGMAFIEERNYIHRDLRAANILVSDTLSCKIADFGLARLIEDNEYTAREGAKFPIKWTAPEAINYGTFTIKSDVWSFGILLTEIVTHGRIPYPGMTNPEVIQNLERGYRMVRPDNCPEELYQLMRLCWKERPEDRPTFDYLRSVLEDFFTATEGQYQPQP
Sequence of Tyrosine-protein kinase Yes (P07947 whole entry): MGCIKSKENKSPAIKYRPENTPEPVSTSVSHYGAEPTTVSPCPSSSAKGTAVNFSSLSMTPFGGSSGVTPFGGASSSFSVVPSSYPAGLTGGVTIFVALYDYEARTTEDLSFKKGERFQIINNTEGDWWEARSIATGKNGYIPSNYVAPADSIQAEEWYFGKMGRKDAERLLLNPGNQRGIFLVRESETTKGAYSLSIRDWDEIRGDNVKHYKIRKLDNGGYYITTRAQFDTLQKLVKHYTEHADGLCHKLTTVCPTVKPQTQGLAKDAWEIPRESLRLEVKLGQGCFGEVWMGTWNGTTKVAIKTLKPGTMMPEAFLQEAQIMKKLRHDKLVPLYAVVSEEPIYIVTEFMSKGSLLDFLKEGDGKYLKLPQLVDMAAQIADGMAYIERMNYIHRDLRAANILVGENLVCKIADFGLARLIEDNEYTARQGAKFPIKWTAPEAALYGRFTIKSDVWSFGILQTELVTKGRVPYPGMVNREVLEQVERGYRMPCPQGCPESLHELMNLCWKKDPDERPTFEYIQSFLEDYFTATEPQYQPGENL

In general, IC50 refers to the concentration that inhibits the measured activity by half. A low value points to higher potency. What is called half-life is the time in which the quantity being followed falls by half. Higher therefore signals slow loss. By bioavailability is commonly meant the share of a dose that reaches the circulation, judged against a reference dose that is usually intravenous. The clearance is the rate of elimination divided by the concentration. Low readings indicate a low capacity for elimination, high ones a high capacity for elimination. In the case of `CC(C)C(=O)N1CCO[C@@H](c2nc(-c3ccc(C(=O)Nc4cc(C(F)(F)F)ccn4)cc3F)c3c(N)nccn23)C1`, the Ratio IC50 was found to be 636 in the data set listed under Homo sapiens [1]; 1600 in the data set listed under Homo sapiens [2]; 4880 in the data set listed under Homo sapiens [4]; 1170 in the data set filed under Homo sapiens [5]; 1160 in the data set filed under Homo sapiens [8]; 973 in the data set listed under Homo sapiens [10]. In addition, the Ratio IC50 in the data set filed under Homo sapiens [11] was 1060. Also, the IC50 in [3] was found to be 2150 nM; in data set [6] it was 100 nM; in [7], 173 nM; in data set [9], 428 nM; in [12], 266 nM. For the same compound, the half-life in [13] is 2.3 h; in data set [16] it was 3.9 h. The bioavailability in data set [14] was 87%. The clearance in data set [15] was 4.8 mL/min/kg.

The values are drawn from ChEMBL document CHEMBL4052776, “Discovery of 3-morpholino-imidazole[1,5-a]pyrazine BTK inhibitors for rheumatoid arthritis” (Bioorg Med Chem Lett, 2017).
